Measurements taken from ChEMBL document CHEMBL3988442, “University of Dundee, Small-Polar-MMV Screening Library” (2021).

The compounds below were run on Schistosoma mansoni (assay: High throughput screening of compounds against Schistosoma mansoni motility).
Assay type: functional
Set-up: dose or concentration left out as unconfirmed
With `O=c1nc(SCc2cccnc2)c2c(n1CCO)CCC2` the “Percent Effect” value was -102.8%.
In the case of `Cc1ccnc(OCC(=O)N2CCC(C(N)=O)CC2)n1`, the “Percent Effect” value is reported as -71.31%.
In the case of `O=C1CCSCC(C(=O)N2CCN(C3CCCCC3)CC2)N1` (stereo not given), the “Percent Effect” value is reported as -48.25%.
For `CCN1CCN(S(=O)(=O)c2ncn(C)c2Cl)CC1`, the “Percent Effect” value was -72.02%.
`CC(CNC(=O)c1ccc(F)cc1Cl)N1CCCC1` (stereo not given) was tested, and the “Percent Effect” value was -36.02%.
In the case of `CC(=O)N1CCC(C(=O)NCCN2CCC(C)CC2)CC1`, the “Percent Effect” value is reported as 14.05%.
`CC(=O)N1CCC(C(=O)NCCN2CCCCC2)CC1` was tested, and the “Percent Effect” value was 25.49%.
With `Cc1cc(C)n(CC(=O)N2CCC(c3nc(C)no3)CC2)n1` the “Percent Effect” value was -18.96%.
In the case of `CC(C)CNC(=O)Nc1ccc(CN2CCOC2=O)cc1`, the “Percent Effect” value is reported as 8.42%.
For `CSCCCNC(=O)Nc1cccc(-c2nccn2C)c1`, the “Percent Effect” value was -33.04%.
With `Cn1cnc(S(=O)(=O)N2CCN(Cc3ccco3)CC2)c1Cl` the “Percent Effect” value was -70.1%.
With `CS(=O)(=O)CCNC(=O)C1(c2cccc(Cl)c2)CCCCC1` the “Percent Effect” value was 34.87%.
With `Cc1ccccc1S(=O)(=O)NC(=O)CSc1ccc2c(c1)OCCO2` the “Percent Effect” value was -27.11%.
With `Cn1cc(-c2csc(N3CCOCC3)n2)cn1` the “Percent Effect” value was 7.634%.
In the case of `CCSc1cc(C(=O)NCCC(=O)Nc2ccccn2)ccn1`, the “Percent Effect” value is reported as -76.69%.
`O=C1OCCN1CCOc1nc(-c2ccccc2Cl)no1` was tested, and the “Percent Effect” value was -41.52%.
In the case of `CC(C#N)CSc1ccccc1NCC(=O)NCc1ccccc1` (stereo not given), the “Percent Effect” value is reported as -63.78%.
In the case of `Cc1ccn(-c2ccccc2NCc2ncc[nH]2)n1`, the “Percent Effect” value is reported as -21.01%.
In the case of `O=C(NCC(F)F)N1CCC(n2ccc(C(F)(F)F)n2)CC1`, the “Percent Effect” value is reported as -27.04%.
`CCOCCN1CCN(Cc2nnc(C3CC3)o2)CC1CC` (stereo not given) was tested, and the “Percent Effect” value was -4.218%.
With `Cn1cc(CCNC(=O)NC2CCS(=O)(=O)C2)cn1` (stereo not given) the “Percent Effect” value was -23.41%.
`Cc1cnn(CC(C)NCc2nc(-c3cccnc3)no2)c1` (stereo not given) was tested, and the “Percent Effect” value was -19.9%.
For `CC(C)(C(=O)NCC(N)=O)c1ccccc1F`, the “Percent Effect” value was 10.05%.
For `CC(O)CN1CCC(CNCc2ccc(S(C)(=O)=O)cc2)CC1` (stereo not given), the “Percent Effect” value was -16.24%.
For `CCCC(C)(C)NC(=O)c1ccc(CC2CC(=O)NC2=O)cc1` (stereo not given), the “Percent Effect” value was -6.374%.
With `CCc1nc(C2CCCN2CC(=O)Nc2c(C)nn(C)c2C)no1` (stereo not given) the “Percent Effect” value was -35.66%.
`Cc1nc(C)n(CC2CCCN2CCCc2ccccc2)n1` (stereo not given) was tested, and the “Percent Effect” value was -9.599%.
In the case of `Cc1nc(C)n(CC2CCCN2CC(=O)NCCc2ccccc2)n1` (stereo not given), the “Percent Effect” value is reported as -20.52%.
For `CN(C)C(C(=O)N1CCCC1)c1ccccc1F` (stereo not given), the “Percent Effect” value was -55.33%.
With `Cc1ncsc1CCC(=O)NCc1cc2n(n1)CCN(C(=O)N(C)C)C2` the “Percent Effect” value was 10.91%.
`Cn1cc(CCC(=O)N2C[C@H]3CC[C@@H]2CN(Cc2ccccc2)C3)cn1` was tested, and the “Percent Effect” value was -38.92%.
With `Cc1nc(CC(=O)N2CCC[C@H]2c2nc(C(C)C)no2)cs1` the “Percent Effect” value was 11.66%.
With `CCCS(=O)(=O)c1ncc(CN2CCC(CO)CC2)n1CC1CCCO1` (stereo not given) the “Percent Effect” value was -65.7%.
For `COc1ccccc1OCc1cc(C(=O)N2C[C@H](O)[C@@H](N(C)C)C2)n[nH]1`, the “Percent Effect” value was -29.56%.
With `O=C(CCc1cc2n(n1)CCCN(C(=O)c1cccnc1)C2)NC1CC1` the “Percent Effect” value was 5.877%.
With `Cc1cc(N2CCN(Cc3nccn3C)CC2)cc(C)n1` the “Percent Effect” value was -24.56%.
With `CCn1nc(CC(C)C)cc1C(=O)NCCn1cccc1` the “Percent Effect” value was -58.97%.
In the case of `CCS(=O)(=O)N1CCC(c2nnc(Cn3cccn3)n2C2CC2)CC1`, the “Percent Effect” value is reported as -7.484%.
In the case of `O[C@H]1[C@H](n2cc(-c3ccccc3)nn2)c2ccccc2C12CCNCC2`, the “Percent Effect” value is reported as 3.648%.
`Cc1noc(C)c1CN1C(=O)[C@H]2CC[C@@H]1CN(Cc1cccnc1N)C2` was tested, and the “Percent Effect” value was -25.95%.
In the case of `Cc1occc1C(=O)N1CCC2(CCC(=O)N(CC(N)=O)C2)CC1`, the “Percent Effect” value is reported as 13.97%.
In the case of `COc1ccccc1Oc1ncccc1CNC(=O)[C@@H](C)NC(C)=O`, the “Percent Effect” value is reported as -37.6%.
With `Cn1c(Cn2ccnc2)nnc1C1CCN(Cc2cccnc2N)CC1` the “Percent Effect” value was -10.4%.
`Cc1ccsc1[C@@H]1CCN(C(=O)c2cc3ccccc3[nH]2)C[C@H]1O` was tested, and the “Percent Effect” value was 28.15%.
`CCC1CN(C(=O)c2ccc(=O)[nH]c2)CCC(=O)N1Cc1ccccc1` (stereo not given) was tested, and the “Percent Effect” value was -27.12%.
